ChEMBL document CHEMBL1201862, “PubChem BioAssay data set” (2004)
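Where inhibition never reached the appropriate level, the endpoint shown equals the highest concentration tested. Otherwise, values were interpolated linearly from a five-concentration, 48-hour dose response in 96-well plates. The concentration for 50% growth inhibition is given as GI50.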 Active and inactive are the calls of the source. No stated cut-off is given here; in the data, active = GI50 up to about 1.1 µM and inactive = higher.

Assays:
Experiment in all cases: growth of human tumour cells (NCI), 48 h
[1] = test system: HCC 2998
[2] = test system: OVCAR-8
[3] = test system: RXF 393
[4] = test system: NCI-H226
[5] = test system: IGROV-1
[6] = test system: NCI-H460
[7] = test system: LOX IMVI
[8] = test system: ACHN
[9] = test system: UO-31
[10] = test system: SR
[11] = test system: SF-295
[12] = test system: CCRF-CEM
[13] = test system: SF-268
[14] = test system: HCT-15
[15] = test system: EKVX
[16] = test system: LXFL 529
[17] = test system: OVCAR-4
[18] = test system: A549
[19] = test system: SNB-19
[20] = test system: HCT-116
[21] = test system: RPMI-8226
[22] = test system: OVCAR-5
[23] = test system: DMS-114
[24] = test system: CAKI-1
[25] = test system: SK-MEL-2
[26] = test system: SW-620
[27] = test system: NCI-H23
[28] = test system: KM12
[29] = test system: SNB-75
[30] = test system: M14
[31] = test system: DLD-1
[32] = test system: SK-MEL-5
[33] = test system: U-251
[34] = test system: SK-OV-3
[35] = test system: A498
[36] = test system: KM-20L2
[37] = test system: Malme-3M
[38] = test system: HT-29
[39] = test system: SN12C
[40] = test system: UACC-257
[41] = test system: TK-10
[42] = test system: SK-MEL-28
[43] = test system: UACC-62
[44] = test system: 786-0
[45] = test system: SF-539
[46] = test system: HOP-92
[47] = test system: K562
[48] = test system: PC-3
[49] = test system: Hs-578T
[50] = test system: NCI/ADR-RES
[51] = test system: OVCAR-3
[52] = test system: NCI-H522
[53] = test system: DU-145
[54] = test system: COLO 205
[55] = test system: MDA-MB-435
[56] = test system: HL-60
[57] = test system: HOP-62
[58] = test system: MDA-N
[59] = test system: MDA-MB-231
[60] = test system: MOLT-4
[61] = test system: MCF7
[62] = test system: BT-549
[63] = test system: T47D

COC(=O)/C(=C/c1ccc(OC)cc1)NC(=O)c1ccccc1
GI50 [1]: > 100 µM (inactive)
GI50 [2]: > 100 µM (inactive)
GI50 [3]: > 100 µM (inactive)
GI50 [4]: > 100 µM (inactive)
GI50 [5]: > 100 µM (inactive)
GI50 [6]: > 100 µM (inactive)
GI50 [7]: > 100 µM (inactive)
GI50 [8]: > 100 µM (inactive)
GI50 [9]: > 100 µM (inactive)
GI50 [10]: > 100 µM (inactive)
GI50 [11]: > 100 µM (inactive)
GI50 [12]: 2 µM (inactive)
GI50 [13]: > 100 µM (inactive)
GI50 [14]: > 100 µM
GI50 [15]: > 100 µM (inactive)
GI50 [16]: > 100 µM (inactive)
GI50 [17]: > 100 µM (inactive)
GI50 [18]: > 100 µM (inactive)
GI50 [19]: > 100 µM (inactive)
GI50 [20]: > 100 µM (inactive)
GI50 [21]: > 100 µM (inactive)
GI50 [22]: > 100 µM (inactive)
GI50 [23]: > 100 µM (inactive)
GI50 [24]: > 100 µM (inactive)
GI50 [25]: > 100 µM (inactive)
GI50 [26]: > 100 µM (inactive)
GI50 [27]: > 100 µM (inactive)
GI50 [28]: > 100 µM (inactive)
GI50 [29]: > 100 µM (inactive)
GI50 [30]: > 100 µM (inactive)
GI50 [31]: > 100 µM (inactive)
GI50 [32]: > 100 µM (inactive)
GI50 [33]: > 100 µM (inactive)
GI50 [34]: > 100 µM (inactive)
GI50 [35]: > 100 µM (inactive)
GI50 [36]: > 100 µM (inactive)
GI50 [37]: > 100 µM (inactive)
GI50 [38]: > 100 µM (inactive)
GI50 [39]: > 100 µM (inactive)
GI50 [40]: > 100 µM (inactive)
GI50 [41]: > 100 µM (inactive)
GI50 [42]: > 100 µM (inactive)
GI50 [43]: > 100 µM (inactive)
GI50 [44]: > 100 µM (inactive)
GI50 [45]: > 100 µM (inactive)
GI50 [46]: > 100 µM (inactive)
GI50 [47]: > 100 µM (inactive)

CO/N=[N+](\[O-])NC(C)C
GI50 [1]: > 100 µM (inactive)
GI50 [2]: > 100 µM (inactive)
GI50 [3]: > 100 µM (inactive)
GI50 [4]: > 100 µM (inactive)
GI50 [5]: > 100 µM (inactive)
GI50 [48]: > 100 µM (inactive)
GI50 [6]: > 100 µM (inactive)
GI50 [7]: > 100 µM (inactive)
GI50 [8]: > 100 µM (inactive)
GI50 [9]: 5.42 µM (inactive)
GI50 [49]: > 100 µM (inactive)
GI50 [50]: > 100 µM (inactive)
GI50 [51]: > 100 µM (inactive)
GI50 [10]: > 100 µM (inactive)
GI50 [11]: > 100 µM (inactive)
GI50 [12]: > 100 µM (inactive)
GI50 [13]: > 100 µM (inactive)
GI50 [52]: > 100 µM (inactive)
GI50 [14]: > 100 µM
GI50 [53]: > 100 µM (inactive)
GI50 [15]: > 100 µM (inactive)
GI50 [17]: > 100 µM (inactive)
GI50 [18]: > 100 µM (inactive)
GI50 [19]: > 100 µM (inactive)
GI50 [54]: > 100 µM (inactive)
GI50 [20]: > 100 µM (inactive)
GI50 [21]: > 100 µM (inactive)
GI50 [22]: > 100 µM (inactive)
GI50 [24]: > 100 µM (inactive)
GI50 [55]: > 100 µM (inactive)
GI50 [25]: > 100 µM (inactive)
GI50 [26]: > 100 µM (inactive)
GI50 [27]: > 100 µM (inactive)
GI50 [28]: > 100 µM (inactive)
GI50 [56]: > 100 µM (inactive)
GI50 [29]: > 100 µM (inactive)
GI50 [30]: > 100 µM (inactive)
GI50 [32]: > 100 µM (inactive)
GI50 [33]: > 100 µM (inactive)
GI50 [34]: > 100 µM (inactive)
GI50 [35]: > 100 µM (inactive)
GI50 [57]: > 100 µM (inactive)
GI50 [58]: > 100 µM (inactive)
GI50 [37]: > 100 µM (inactive)
GI50 [59]: > 100 µM (inactive)
GI50 [60]: > 100 µM (inactive)
GI50 [38]: > 100 µM (inactive)
GI50 [39]: > 100 µM (inactive)
GI50 [40]: > 100 µM (inactive)
GI50 [41]: > 100 µM (inactive)
GI50 [61]: > 100 µM (inactive)
GI50 [62]: > 100 µM (inactive)
GI50 [63]: > 100 µM (inactive)
GI50 [42]: > 100 µM (inactive)
GI50 [43]: > 100 µM (inactive)
GI50 [44]: > 100 µM (inactive)
GI50 [45]: > 100 µM (inactive)
GI50 [46]: > 100 µM (inactive)
GI50 [47]: > 100 µM (inactive)
